Holding throughout (settings): 72 h
Assay [1] has as its system U2OS. In words: drug sensitivity score (DSS) for viability; higher = more toxic; extreme values may be limits of the assay.
Assay [2] concerns Vero E6. The assay is described as above.
The subject of assay [3] is Calu-3. The assay is described as above.
The subject of assay [4] is HepG2. The description is as above.
For assay [5], the system named is Caco-2. Described as above.
The test system of assay [6] is U2OS. Briefly: relative viability EC50 (midpoint between 100% and the lowest measured viability); higher = less toxic.
The subject of assay [7] is Vero E6. Described as above.
The test system of assay [8] is Caco-2. The assay is described as above.
Assay [9] concerns HepG2. Described as above.
Assay [10] has as its system U2OS. In words: cell viability relative to DMSO; higher = less toxic.
Assay [11] relates to Vero E6. Described as above.
The subject of assay [12] is Caco-2. The assay is described as above.
Assay [13] deals with HepG2. The description is as above.
Assay [14] concerns Calu-3. Described as above.
Assay [15] deals with Calu-3. In words: relative viability EC50 (midpoint between 100% and the lowest measured viability); higher = less toxic.

A value given as a limit tells only on which side of the number the result lay.

In the case of `O=C(O)COC(=O)Cc1ccccc1Nc1c(Cl)cccc1Cl` [aceclofenac], the drug sensitivity score in the assay on U2OS [1], in the assay on Vero E6 [2], in the assay on Calu-3 [3] and in the assay with HepG2 [4] was 0 in each case.
By cell viability is commonly meant a read-out of living cells in per cent, often relative to untreated cells. Take `Nc1c(CC(=O)O)cccc1C(=O)c1ccccc1` [amfenac]: the drug sensitivity score with U2OS [1], in the assay with Vero E6 [2], in the assay on Caco-2 [5] and with HepG2 [4] was 0 in each case. The “relative viability EC50” value in the assay with U2OS [6], in the assay with Vero E6 [7], in the assay with Caco-2 [8] and with HepG2 [9] was over 10 µM each time. In addition, the cell viability in the assay on U2OS [10] (1 nM) is 101%; in the assay on U2OS [10] (10 nM) it was 96%; in the assay on U2OS [10] (100 nM), 102%; with U2OS [10] (1000 nM) it was 97.2%; in the assay on U2OS [10] (10000 nM) it was 104%; with Vero E6 [11] (1 nM) it was 94.1%. Besides, the cell viability in the assay on Vero E6 [11] (10 nM) came to 102%; with Vero E6 [11] (100 nM), 97.2%; in the assay with Vero E6 [11] (1000 nM), 102%; in the assay on Vero E6 [11] (10000 nM) it was 102%; in the assay on Caco-2 [12] (1 nM), 101%; with Caco-2 [12] (10 nM), 97.4%. The cell viability in the assay with Caco-2 [12] (100 nM) was 104%; in the assay on Caco-2 [12] (1000 nM), 94.1%; in the assay on Caco-2 [12] (10000 nM) it was 97.4%; with HepG2 [13] (1 nM) it was 103%; in the assay with HepG2 [13] (10 nM), 105%; in the assay on HepG2 [13] (100 nM), 97.9%. In addition, the cell viability stood at 106% with HepG2 [13] (1000 nM) and 101% in the assay on HepG2 [13] (10000 nM).
For the molecule `Nc1ncn([C@@H]2O[C@H](CO)[C@@H](O)[C@H]2O)c(=O)n1` [azacitidine], the drug sensitivity score with U2OS [1] was 0; in the assay on Vero E6 [2], 5; in the assay with Calu-3 [3], 3.5; with Caco-2 [5], 2.6; with HepG2 [4], 3.1. Further, the “relative viability EC50” value with U2OS [6] is over 10 µM; in the assay on Vero E6 [7] it was 1.98 µM. Also, the cell viability is 98% in the assay with U2OS [10] (1 nM); 102% in the assay on U2OS [10] (10 nM); 98.6% in the assay on U2OS [10] (100 nM); 102% in the assay on U2OS [10] (1000 nM); 98.4% in the assay on U2OS [10] (10000 nM); 97.3% with Vero E6 [11] (1 nM). Further, the cell viability turned out to be 102% with Vero E6 [11] (10 nM); 95.9% in the assay with Vero E6 [11] (100 nM); 90.5% in the assay on Vero E6 [11] (1000 nM); 37.3% with Vero E6 [11] (10000 nM); 102% in the assay with Calu-3 [14] (1 nM); 90.9% in the assay with Calu-3 [14] (10 nM). The cell viability with Calu-3 [14] (100 nM) is 88.5%; in the assay with Calu-3 [14] (1000 nM), 87.2%; in the assay with Calu-3 [14] (10000 nM), 64%; in the assay with Caco-2 [12] (1 nM) it was 87.3%; in the assay on Caco-2 [12] (10 nM) it was 104%; in the assay with Caco-2 [12] (100 nM), 96.1%. Further, the cell viability with Caco-2 [12] (1000 nM) was found to be 90.1%; with Caco-2 [12] (10000 nM) it was 67.9%; in the assay with HepG2 [13] (1 nM) it was 97.9%; in the assay on HepG2 [13] (10 nM), 99.7%; in the assay on HepG2 [13] (100 nM), 95.9%; in the assay on HepG2 [13] (1000 nM), 94.1%. Also, in the assay with HepG2 [13] (10000 nM), the cell viability is 57.8%.
Turning to `CC(C)(C)[C@H]1CC[C@H](CC2=C(O)C(=O)c3ccccc3C2=O)CC1` [buparvaquone], the drug sensitivity score in the assay with U2OS [1] is 0; with Vero E6 [2], 3.8; in the assay with Calu-3 [3], 0; in the assay with Caco-2 [5] it was 0.3; in the assay on HepG2 [4], 2.2. The “relative viability EC50” value in the assay with U2OS [6], in the assay on Calu-3 [15] and with Caco-2 [8] was over 10 µM each time. For the same molecule, the cell viability in the assay with U2OS [10] (1 nM) amounted to 97.4%; in the assay with U2OS [10] (10 nM), 100%; with U2OS [10] (100 nM) it was 99.3%; in the assay on U2OS [10] (1000 nM) it was 102%; in the assay with U2OS [10] (10000 nM), 97.6%; in the assay on Vero E6 [11] (1 nM), 102%. The cell viability with Vero E6 [11] (10 nM) was found to be 101%; in the assay on Vero E6 [11] (100 nM), 105%; in the assay with Vero E6 [11] (1000 nM), 82.7%; in the assay with Vero E6 [11] (10000 nM) it was 65.5%; in the assay on Calu-3 [14] (1 nM), 91.4%; in the assay on Calu-3 [14] (10 nM), 104%. Moreover, the cell viability was 95% in the assay on Calu-3 [14] (100 nM); 96.6% in the assay on Calu-3 [14] (1000 nM); 94% with Calu-3 [14] (10000 nM); 94.1% in the assay with Caco-2 [12] (1 nM); 101% in the assay with Caco-2 [12] (10 nM); 102% in the assay on Caco-2 [12] (100 nM). The cell viability amounted to 111% in the assay with Caco-2 [12] (1000 nM); 81.3% with Caco-2 [12] (10000 nM); 99.5% with HepG2 [13] (1 nM); 104% in the assay with HepG2 [13] (10 nM); 98.9% with HepG2 [13] (100 nM); 93.9% in the assay on HepG2 [13] (1000 nM). The cell viability with HepG2 [13] (10000 nM) turned out to be 71.1%.
For `CNC(=O)Oc1cccc2ccccc12` [carbaril], the drug sensitivity score in the assay on U2OS [1], with Vero E6 [2], with Calu-3 [3] and with HepG2 [4] was 0 each time.

Source of the values: the supplement of paper PMC13380429.
